Test results as given in patent US20200157637A1, “TARGETING OF ANAPLASTIC LYMPHOMA KINASE IN SQUAMOUS CELL CARCINOMA” (BOARD OF REGENTS, THE UNIVERSITY OF TEXAS SYSTEM, priority 2017, published 2020).
Entries after “also recorded” stand apart in the source; their conditions may differ.

Columns and labels:
oral cancer patients = conditions: cited from earlier work
Cal27 cells = test: Flow cytometry cell cycle analysis (PI staining), Cal27; format: cell-based, Human; conditions: 500 nM each, 30 hr
From the text: (§1) Flow cytometry. […] Cells were harvested, fixed in 70% EtoH, treated with RNase A, and stained with propidium iodide (PI).

HSC3 cells [1] = test: Flow cytometry cell cycle analysis (PI staining), HSC3; format: cell-based, Human; conditions: 500 nM each, 30 hr
From the text: as §1

HSC3 mouse xenografts = test: OSCC mouse xenograft model (HSC3-derived tumors); format: in vivo
Protocol: OSCC mouse xenograft models. All studies were approved by the UTHSCSA institutional Animal Care and Use Committee. Six week-old female athymic nude mice (Harlan, Indianapolis, […].) were used in a laminar air-flow cabinet under pathogen-free conditions. Mice were provided with a 12 h light/dark schedule at controlled temperature and humidity with food and water ad libitum. Mice were acclimated for one week prior to study initiation. Mice were injected subcutaneously in the right flank with 3×10^6 HSC3 cells in 0.1 ml of sterile PBS. […] Treatments were repeated every day for a total of 14 days. Mice were monitored daily for tumor growth (using digital calipers), cachexia, and weight loss. Tumor volumes were calculated by the elliptical formula: ½ (Length×Width^2) (Jensen et al., 2008). At experimental conclusion, tumors were fixed and processed for histological analysis. Hematoxylin and eosin (H&E) staining and IHC studies were performed by the UTHSCSA Cancer Therapy and Research Center (CTRC) core pathology laboratory.

HSC3 cells [2] = test: Cell viability assay, HSC3; format: cell-based, Human; conditions: 500 nM each, 48, 72 and 96 h
Protocol: (§2) Cell viability assays. Cytotoxicity was assessed using the Cell Titer 96 Aqueous Non-Radioactive Cell Proliferation Assay (Promega, Madison, Wis.) according to manufacturer's protocol. Absorbance values of test groups were normalized against controls (n=4).

Ca127 cells [3] = test: Cell viability assay, Ca127; format: cell-based, Human; conditions: 500 nM each, 48, 72 and 96 h
Protocol: as §2

[4] = test system: EGFR signaling components in HSC3 cells; test: Western blot analysis of EGFR signaling components, HSC3; format: cell-based, Human; conditions: 500 nM each, 6 h
From the text: (§3) Immunoblotting. […] SDS-PAGE separated proteins were transferred to PVDF membrane and the membrane blocked in 5% milk.

[5] = test system: EGFR signaling components in Ca127 cells; test: Western blot analysis of EGFR signaling components, Ca127; format: cell-based, Human; conditions: 500 nM each, 6 h
From the text: as §3

HSC3 cells [6] = test: Cell migration (IncuCyte wound-healing) assay, HSC3; format: cell-based, Human; conditions: 500 nM each
Protocol: (§4) Cell migration assay. Cellular migration was performed using the IncuCyte ZOOM™ live cell image device (Essen Bioscience). After achieving cell confluence in 96-well format, the IncuCyte scratch system was used to generate simultaneous rectangular ‘wounds’ with a defined area in HSC3 and Ca127 cell layers. […] Images of cells moving within the wound area were taken by the automated Incu-Cyte system over intervals of 2 hr (HSC3) or 3 hr (Ca127). Migration was calculated as percent of cell confluence within the wound, starting at 0% confluence (i.e., no cells in the wound area). When the wound was completely filled with migrating cells, this was calculated at 100% confluence.

Ca127 cells [7] = test: Cell migration (IncuCyte wound-healing) assay, Ca127; format: cell-based, Human; conditions: 500 nM each
Protocol: as §4

For `C#Cc1cccc(Nc2ncnc3cc(OCCOC)c(OCCOC)cc23)c1` [Erlotinib], the response rate (oral cancer patients; oral cancer patients with stage I disease) is given as 10-15% and the “response (in words)” value (oral cancer patients; patients with stages II, III, and IV disease) is given as “failed to respond entirely”.

In the case of `COc1cc(N2CCC(N3CCN(C)CC3)CC2)ccc1Nc1ncc(Cl)c(Nc2ccccc2S(=O)(=O)C(C)C)n1` [TAE684], the G1 (Cal27 cells) is reported as 88.11 % of cell distribution, the G2 (Cal27 cells) is reported as 8.40 % of cell distribution and the S (Cal27 cells) is reported as 2.25 % of cell distribution. For the same compound, the SubG1 (Cal27 cells) was 1.68 % of cell distribution, the G1 (HSC3 cells [1]) was 95.23 % of cell distribution and the G2 (HSC3 cells [1]) was 3.73 % of cell distribution. For the same compound, the S (HSC3 cells [1]) was 0.84 % of cell distribution, the SubG1 (HSC3 cells [1]) was 0.34 % of cell distribution and the “tumor growth (in words)” value (HSC3 mouse xenografts; daily oral gavage for 14 days, TAE684 10 mg/kg, Gefitinib 100 mg/kg) was “unaffected; also recorded: No change in tumor growth”. For the same compound, the mean tumor volume (HSC3 mouse xenografts; day 14, daily oral gavage, TAE684 10 mg/kg, Gefitinib 100 mg/kg, vehicle control 431 mm^3) was 381 mm^3, the “cell growth (in words)” value (HSC3 cells [2]) was “significant anti-proliferative effects” and the “cell growth (in words)” value (Ca127 cells [3]) was “significant anti-proliferative effects”. For the same compound, the “activation of STAT3 (p-STAT3 to total STAT3) (in words)” value [4] was “induced”, the “phospho-AKT / AKT activation (in words)” value [4] was “significantly reduced” and the “activation of STAT3 (p-STAT3 to total STAT3) (in words)” value [5] was “slightly induced”. The “phospho-AKT / AKT activation (in words)” value [5] was “significantly decreased”.

In the case of `COc1cc2ncnc(Nc3ccc(F)c(Cl)c3)c2cc1OCCCN1CCOCC1` [Gefitinib], the G1 (Cal27 cells) is reported as 90.79 % of cell distribution, the G2 (Cal27 cells) is reported as 4.44 % of cell distribution and the S (Cal27 cells) is reported as 2.59 % of cell distribution. The SubG1 (Cal27 cells) was 2.53 % of cell distribution, the G1 (HSC3 cells [1]) was 95.60 % of cell distribution and the G2 (HSC3 cells [1]) was 1.87 % of cell distribution. For the same compound, the S (HSC3 cells [1]) was 0.0 % of cell distribution, the SubG1 (HSC3 cells [1]) was 2.03 % of cell distribution and the “tumor volume compared to control” value (HSC3 mouse xenografts; day 6, Gefitinib 100 mg/kg daily, oral gavage) was 57 % of control. For the same compound, the “cell growth (in words)” value (HSC3 cells [2]) was “significant anti-proliferative effects”, the “cell growth (in words)” value (Ca127 cells [3]) was “significant anti-proliferative effects” and the “cell migration (in words)” value (HSC3 cells [6]) was “significant reduction from 2 to 8 h”. For the same compound, the “cell migration (in words)” value (Ca127 cells [7]) was “significantly reduced at 9 h and remained significantly low for 48 h”.
